US6737383B1, “Herbicidal oxadiazolidines” (priority 1999, dated 2004)

Key:
bedstraw = assay: Test B pre/postemergence bedstraw; format: in vivo, Galium aparine
Method in brief: (§1)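 Response is a visual 0-to-10 score relative to untreated plants, where 0 means no effect and 10 means complete control, taken twelve to sixteen days after application. Treatments went onto soil at planting and onto foliage of 1- to 4-leaf plants, using a surfactant-containing non-phytotoxic solvent.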

blackgrass = assay: Test B pre/postemergence blackgrass; format: in vivo, Alopecurus myosuroides
Method in brief: as §1

surinam grass = assay: Test B pre/postemergence surinam grass; format: in vivo, Brachiaria decumbens
Method in brief: as §1

cocklebur = assay: Test B pre/postemergence cocklebur; format: in vivo, Xanthium strumarium
Method in brief: as §1

corn = assay: Test B pre/postemergence corn; format: in vivo, Zea mays
Method in brief: as §1

crabgrass = assay: Test B pre/postemergence crabgrass; format: in vivo, Digitaria sanguinalis
Method in brief: as §1

giant foxtail = assay: Test B pre/postemergence giant foxtail; format: in vivo, Setaria faberii
Method in brief: as §1

morningglory = assay: Test B pre/postemergence morningglory; format: in vivo, Ipomoea hederacea
Method in brief: as §1

pigweed = assay: Test B pre/postemergence pigweed; format: in vivo, Amaranthus retroflexus
Method in brief: as §1

rape = assay: Test B pre/postemergence rape; format: in vivo, Brassica napus
Method in brief: as §1

soybean = assay: Test B pre/postemergence soybean; format: in vivo, Glycine max
Method in brief: as §1

sugar beet = assay: Test B pre/postemergence sugar beet; format: in vivo, Beta vulgaris
Method in brief: as §1

velvetleaf = assay: Test B pre/postemergence velvetleaf; format: in vivo, Abutilon theophrasti
Method in brief: as §1

wheat = assay: Test B pre/postemergence wheat; format: in vivo, Triticum aestivum
Method in brief: as §1

wild oat = assay: Test B pre/postemergence wild oat; format: in vivo, Avena fatua
Method in brief: as §1

purple nutsedge = assay: Test B pre/postemergence purple nutsedge; format: in vivo, Cyperus rotundus; settings: for Plant response rating, Nutsedge: Rate 125 g/ha
Method in brief: as §1

[1] = Preemergence, Rate 31 g/ha, visual rating, scale 0 to 10 (0 no effect, 10 complete control)
[2] = Preemergence, Rate 62 g/ha, scale of 0 to 10 where 0 is no effect and 10 is complete control
[3] = Preemergence, Rate 125 g/ha, scale of 0 to 10 where 0 is no effect and 10 is complete control
[4] = Rate 62 g/ha, Postemergence, scale 0 to 10 (0 no effect, 10 complete control)
[5] = Postemergence, Rate 31 g/ha, visual rating, scale 0 to 10 (0 no effect, 10 complete control)
[6] = Postemergence, Rate 125 g/ha, scale 0 to 10, 0 is no effect, 10 is complete control
[7] = Postemergence, Rate 250 g/ha, scale 0 to 10
[8] = Preemergence, Rate 250 g/ha, scale 0 to 10, 0 is no effect, 10 is complete control
[9] = Preemergence, scale of 0 to 10 where 0 is no effect and 10 is complete control
[10] = Preemergence, Rate 250 g/ha, scale 0 (no effect) to 10 (complete control)

CC(C)N(C(=O)n1oc(=O)n(C(C)C(=O)N(C)C)c1=O)c1ccc(F)cc1F (centres unmarked) [Compound 481]
Bedstraw plant response rating (bedstraw; [1]): 0 | Plant response rating, Bedstraw (bedstraw; [2]): 0 | Plant response rating, Bedstraw (bedstraw; [3]): 0 | Bedstraw plant response rating (bedstraw; [4]): 0 | Blackgrass plant response rating (blackgrass; [5]): 0 | Blackgrass plant response rating (blackgrass; [6]): 0 | Blackgrass plant response rating (blackgrass; [7]): 2 | Blackgrass plant response rating (blackgrass; [1]): 3 | Plant response rating, Blackgrass (blackgrass; [2]): 6 | Plant response rating, Blackgrass (blackgrass; [3]): 6 | Blackgrass plant response rating (blackgrass; [8]): 10 | Blackgrass plant response rating (blackgrass; [4]): 0 | B. signalgrass plant response rating (surinam grass; [5]): 0 | B. signalgrass plant response rating (surinam grass; [6]): 0 | B. signalgrass plant response rating (surinam grass; Postemergence, Rate 250 g/ha, scale 0 to 10, 0 no effect, 10 complete control): 6 | B. signalgrass plant response rating (surinam grass; [1]): 7 | Plant response rating, B. signalgrass (surinam grass; [2]): 7 | Plant response rating, B. signalgrass (surinam grass; [3]): 9 | B. signalgrass plant response rating (surinam grass; [8]): 9 | B. signalgrass plant response rating (surinam grass; [4]): 0 | Cocklebur plant response rating (cocklebur; [5]): 0 | Cocklebur plant response rating (cocklebur; [6]): 0 | Cocklebur plant response rating (cocklebur; [7]): 0 | Cocklebur plant response rating (cocklebur; [1]): 0 | Plant response rating, Cocklebur (cocklebur; [2]): 0 | Plant response rating, Cocklebur (cocklebur; [3]): 0 | Cocklebur plant response rating (cocklebur; [8]): 0 | Cocklebur plant response rating (cocklebur; [4]): 0 | Corn plant response rating (corn; [5]): 0 | Corn plant response rating (corn; [6]): 3 | Corn plant response rating (corn; [7]): 3 | Corn plant response rating (corn; [1]): 0 | Plant response rating, Corn (corn; [2]): 0 | Plant response rating, Corn (corn; [3]): 0 | Corn plant response rating (corn; [8]): 0 | Corn plant response rating (corn; [4]): 0 | Crabgrass plant response rating (crabgrass; [5]): 0 | Crabgrass plant response rating (crabgrass; [6]): 2 | Crabgrass plant response rating (crabgrass; [7]): 2 | Crabgrass plant response rating (crabgrass; [1]): 7 | Plant response rating, Crabgrass (crabgrass; [2]): 7 | Plant response rating, Crabgrass (crabgrass; [3]): 8 | Crabgrass plant response rating (crabgrass; [8]): 8 | Crabgrass plant response rating (crabgrass; [4]): 0 | Giant foxtail plant response rating (giant foxtail; [5]): 0 | Giant foxtail plant response rating (giant foxtail; [6]): 2 | Giant foxtail plant response rating (giant foxtail; [7]): 8 | Giant foxtail plant response rating (giant foxtail; [1]): 8 | Plant response rating, Giant foxtail (giant foxtail; [2]): 9 | Plant response rating, Giant foxtail (giant foxtail; [3]): 9 | Giant foxtail plant response rating (giant foxtail; [8]): 9 | Giant foxtail plant response rating (giant foxtail; [4]): 2 | Morningglory plant response rating (morningglory; [5]): 0 | Morningglory plant response rating (morningglory; [6]): 0 | Morningglory plant response rating (morningglory; [7]): 2 | Plant response rating, Morningglory (morningglory; [2]): 0 | Plant response rating, Morningglory (morningglory; [3]): 0 | Morningglory plant response rating (morningglory; [8]): 0 | Morningglory plant response rating (morningglory; [4]): 0 | Redroot pigweed plant response rating (pigweed; [5]): 0 | Redroot pigweed plant response rating (pigweed; [6]): 0 | Redroot pigweed plant response rating (pigweed; [7]): 0 | Plant response rating, Redroot pigweed (pigweed; [2]): 0 | Plant response rating, Redroot pigweed (pigweed; [3]): 0 | Redroot pigweed plant response rating (pigweed; [8]): 3 | Redroot pigweed plant response rating (pigweed; [4]): 0 | Rape plant response rating (rape; [5]): 0 | Rape plant response rating (rape; [6]): 0 | Rape plant response rating (rape; [7]): 0 | Plant response rating, Rape (rape; [2]): 0 | Plant response rating, Rape (rape; [3]): 0 | Rape plant response rating (rape; [8]): 0 | Rape plant response rating (rape; [4]): 0 | Soybean plant response rating (soybean; [5]): 4 | Soybean plant response rating (soybean; [6]): 4 | Soybean plant response rating (soybean; [7]): 4 | Plant response rating, Soybean (soybean; [2]): 0 | Plant response rating, Soybean (soybean; [3]): 0 | Soybean plant response rating (soybean; [8]): 0 | Soybean plant response rating (soybean; [4]): 4 | Sugarbeets plant response rating (sugar beet; [5]): 0 | Sugarbeets plant response rating (sugar beet; [6]): 0 | Sugarbeets plant response rating (sugar beet; [7]): 0 | Plant response rating, Sugarbeets (sugar beet; [2]): 0 | Plant response rating, Sugarbeets (sugar beet; [3]): 0 | Sugarbeets plant response rating (sugar beet; [8]): 2 | Sugarbeets plant response rating (sugar beet; [4]): 0 | Velvetleaf plant response rating (velvetleaf; [5]): 0 | Velvetleaf plant response rating (velvetleaf; [6]): 0 | Velvetleaf plant response rating (velvetleaf; [7]): 0 | Plant response rating, Velvetleaf (velvetleaf; [2]): 0 | Plant response rating, Velvetleaf (velvetleaf; [3]): 0 | Velvetleaf plant response rating (velvetleaf; [8]): 0 | Velvetleaf plant response rating (velvetleaf; [4]): 0 | Wheat plant response rating (wheat; [5]): 0 | Wheat plant response rating (wheat; [6]): 0 | Wheat plant response rating (wheat; [7]): 0 | Plant response rating, Wheat (wheat; [2]): 0 | Plant response rating, Wheat (wheat; [3]): 3 | Wheat plant response rating (wheat; [8]): 2 | Wheat plant response rating (wheat; [4]): 0 | Wild oats plant response rating (wild oat; [5]): 0 | Wild oats plant response rating (wild oat; [6]): 0 | Wild oats plant response rating (wild oat; [7]): 0 | Plant response rating, Wild oats (wild oat; [2]): 4 | Plant response rating, Wild oats (wild oat; [3]): 6 | Wild oats plant response rating (wild oat; [8]): 8 | Wild oats plant response rating (wild oat; [4]): 0 | Nutsedge plant response rating (purple nutsedge; [5]): 0 | Nutsedge plant response rating (purple nutsedge; [7]): 0 | Plant response rating, Nutsedge (purple nutsedge; [9]): 4 | Nutsedge plant response rating (purple nutsedge; [8]): 6 | Nutsedge plant response rating (purple nutsedge; [4]): 0

CC(C)N(C(=O)n1oc(=O)n(Cc2nnc(-c3ccccc3)o2)c1=O)c1ccccc1 [Compound 716]
Bedstraw plant response rating (bedstraw; [1]): 0 | Bedstraw plant response rating (bedstraw; [2]): 0 | Plant response rating, Bedstraw (bedstraw; [3]): 0 | Bedstraw plant response rating (bedstraw; [10]): 0 | Blackgrass plant response rating (blackgrass; [1]): 0 | Blackgrass plant response rating (blackgrass; [2]): 0 | Plant response rating, Blackgrass (blackgrass; [3]): 0 | Blackgrass plant response rating (blackgrass; [10]): 0 | B. signalgrass plant response rating (surinam grass; [1]): 0 | B. signalgrass plant response rating (surinam grass; [2]): 0 | Plant response rating, B. signalgrass (surinam grass; [3]): 0 | B. signalgrass plant response rating (surinam grass; [10]): 0 | Cocklebur plant response rating (cocklebur; [1]): 0 | Cocklebur plant response rating (cocklebur; [2]): 0 | Plant response rating, Cocklebur (cocklebur; [3]): 0 | Cocklebur plant response rating (cocklebur; [10]): 0 | Corn plant response rating (corn; [1]): 0 | Corn plant response rating (corn; [2]): 0 | Plant response rating, Corn (corn; [3]): 0 | Corn plant response rating (corn; [10]): 0 | Crabgrass plant response rating (crabgrass; [1]): 0 | Crabgrass plant response rating (crabgrass; [2]): 0 | Plant response rating, Crabgrass (crabgrass; [3]): 0 | Crabgrass plant response rating (crabgrass; [10]): 0 | Giant foxtail plant response rating (giant foxtail; [1]): 0 | Giant foxtail plant response rating (giant foxtail; [2]): 0 | Plant response rating, Giant foxtail (giant foxtail; [3]): 0 | Giant foxtail plant response rating (giant foxtail; [10]): 0 | Morningglory plant response rating (morningglory; [2]): 0 | Plant response rating, Morningglory (morningglory; [3]): 0 | Morningglory plant response rating (morningglory; [10]): 0 | Redroot pigweed plant response rating (pigweed; [2]): 0 | Plant response rating, Redroot pigweed (pigweed; [3]): 0 | Redroot pigweed plant response rating (pigweed; [10]): 0 | Rape plant response rating (rape; [2]): 0 | Plant response rating, Rape (rape; [3]): 0 | Rape plant response rating (rape; [10]): 0 | Soybean plant response rating (soybean; [2]): 0 | Plant response rating, Soybean (soybean; [3]): 0 | Soybean plant response rating (soybean; [10]): 0 | Sugarbeets plant response rating (sugar beet; [2]): 0 | Plant response rating, Sugarbeets (sugar beet; [3]): 0 | Sugarbeets plant response rating (sugar beet; [10]): 0 | Velvetleaf plant response rating (velvetleaf; [2]): 0 | Plant response rating, Velvetleaf (velvetleaf; [3]): 0 | Velvetleaf plant response rating (velvetleaf; [10]): 0 | Wheat plant response rating (wheat; [2]): 0 | Plant response rating, Wheat (wheat; [3]): 0 | Wheat plant response rating (wheat; [10]): 0 | Wild oats plant response rating (wild oat; [2]): 0 | Plant response rating, Wild oats (wild oat; [3]): 0 | Wild oats plant response rating (wild oat; [10]): 0 | Nutsedge plant response rating (purple nutsedge; [2]): 0 | Plant response rating, Nutsedge (purple nutsedge; [9]): 0
